# Key:
# ABCA1 [1] = assay: qRT-PCR of ABCA1 in peritoneal macrophages isolated from exposed C57BL/6 mice; type: in vivo, mouse; details: 200 mg/kg BW oral gavage for 7 d, control set to 1, p<0.01
# Protocol: Total RNA was isolated from RAW264.7 cells and mouse peritoneal macrophages using TRIzol reagent according to the manufacturer’s instructions. Then a Nanovue Plus™ spectrophotometer (GE Healthcare Life Science) was used to analyze the concentration, quality, and purity of the RNA. Total RNA ( 1μg ) was mixed with oligo deoxythymine (dT) ( 1μL ) at 70°C for 5 min and then combined with a mixture containing Moloney murine leukemia virus (MMLV) reverse transcriptase ( 1μL ), deoxy-ribonucleoside triphosphate (dNTP) ( 1.25μL ), Recombinant RNasin® Ribonuclease Inhibitor (Promega) ( 0.65μL ), and MMLV buffer ( 5μL ) at 42°C for 60 min. The SYBR® Green PCR Kit (TOYOBO) was used for RT-PCR analysis. Real-time fluorescence detection was performed using the StepOnePlus™ sequence detection system (Applied Biosystems). […]
# All experiments related to animals were approved by the institutional animal care and use committee of Peking University and followed the guidelines for animal experiments of the university as well as for experimental animals in China. […] Body weight (BW) was measured every week during the dosing period. […] Considering that this study assessed the effects of short-term exposure to TPHP, whereas humans are exposed to TPHP over a lifelong period, the present study used exposure doses that were higher than that of human exposure from house dust. […]
# human LXRβ = biological target: T1, human LXRβ (Homo sapiens, UniProt P55055); assay: cell-based
# T1 sequence (P55055 219-460): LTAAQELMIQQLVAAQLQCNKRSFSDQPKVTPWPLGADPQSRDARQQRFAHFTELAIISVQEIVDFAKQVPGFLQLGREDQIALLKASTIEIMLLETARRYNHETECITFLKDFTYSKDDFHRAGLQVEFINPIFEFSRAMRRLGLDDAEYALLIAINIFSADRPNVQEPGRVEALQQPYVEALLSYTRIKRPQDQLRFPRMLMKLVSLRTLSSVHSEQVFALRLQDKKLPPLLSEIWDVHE
# ABCA1 [2] = assay: qRT-PCR of LXR target gene ABCA1 in RAW264.7 macrophages; type: cell-based; details: vehicle-treated cells set to 1, p<0.01
# Protocol: RAW264.7 cells were obtained from the National Infrastructure of Cell Line Resource of Beijing, China, and the cells used for the experiment were cultured for at least three passages. Dulbecco’s Modified Eagle’s Medium (DMEM)-F12 medium containing 10% fetal bovine serum (FBS) was employed to culture the RAW264.7 cells. RAW264.7 cells were incubated at 37°C with 5% carbon dioxide. The RAW264.7 cells were plated at 2.5×10^5 cells/well (6-well plates), 6.0×10^4 cells/well (24-well plates), and 10^4 cells/well (96-well plates). The RAW264.7 cells were plated and grown overnight; then the medium was removed and fresh DMEM-F12 contained with 0.1% DMSO (control; n=3 ) or TPHP at the concentrations of 1–20,000 nM ( n=3 per group) was added. […] Then the cells were used for the quantitative reverse transcription (qRT)-PCR, cellular cholesterol efflux assay, and foam cell formation experiment.
# Total RNA was isolated from RAW264.7 cells and mouse peritoneal macrophages using TRIzol reagent according to the manufacturer’s instructions. Then a Nanovue Plus™ spectrophotometer (GE Healthcare Life Science) was used to analyze the concentration, quality, and purity of the RNA. Total RNA ( 1μg ) was mixed with oligo deoxythymine (dT) ( 1μL ) at 70°C for 5 min and then combined with a mixture containing Moloney murine leukemia virus (MMLV) reverse transcriptase ( 1μL ), deoxy-ribonucleoside triphosphate (dNTP) ( 1.25μL ), Recombinant RNasin® Ribonuclease Inhibitor (Promega) ( 0.65μL ), and MMLV buffer ( 5μL ) at 42°C for 60 min. The SYBR® Green PCR Kit (TOYOBO) was used for RT-PCR analysis. Real-time fluorescence detection was performed using the StepOnePlus™ sequence detection system (Applied Biosystems). […] The following primers were designed and purchased from Sangon Biotech:
# • actin: 5′-[…]-3′ and 5′-[…]-3′ ATP-binding cassette transporter A1 (ABCA1): 5′-[…]-3′ and 5′-[…]-3′ • ATP-binding cassette transporter G1 (ABCG1): 5′-[…]-3′ and 5′-[…]-3′.
structure (smiles),measurement,setting,value
"O=P(Oc1ccccc1)(Oc1ccccc1)Oc1ccccc1 [TPHP, triphenyl phosphate]",ABCA1 gene expression in peritoneal macrophages relative to control,ABCA1 [1],0.51±0.07 fold
same,IC50,human LXRβ,0.762 µM
same,ABCA1 gene expression relative to control,"ABCA1 [2]; 5,000 nM",0.49±0.06 fold
same,ABCA1 gene expression relative to control,"ABCA1 [2]; 10,000 nM",0.38±0.01 fold
same,ABCA1 gene expression relative to control,"ABCA1 [2]; 20,000 nM",0.30±0.03 fold

# Source: PMC6927504, “Screening of House Dust from Chinese Homes for Chemicals with Liver X Receptors Binding Activities and Characterization of Atherosclerotic Activity Using an in Vitro Macrophage Cell Line and ApoE^−/− Mice” (Environmental Health Perspectives, 2019)
